Results from US20180344639A1, “HYPOXIA-TARGETED POLYMERIC MICELLES FOR CANCER THERAPY AND IMAGING” (priority 2012, published 2018).

Experiments:
[1] = Release of drug from the polymeric micelle during dialysis, by change in absorbance; assay type: physicochemical; conditions: PMC from Example I; 24 hours dialysis; tris buffer (pH 7.4) given for Drug A only
Method: (§1) The polymer is dissolved in deionized water or an aqueous buffer at a concentration of 0.010 g/mL. Drugs A is dissolved in DMSO at a concentration of 5 μg/μl. Drug A is added dropwise to the polymer solution with constant stirring at room temperature. The drugs are added over the course of 60 minutes resulting in a 2-5 fold molar excess over polymer. The solution is centrifuged to remove any precipitates and transferred to dialysis tubing with 10,000 MWCO. The solution is dialyzed against an aqueous buffer (50× volume) for 30 minutes.
(§2) The absorbance of the polymer-drug solution and dialysis buffer are recorded and compared to respective pre-dialysis samples by a UV/Vis spectrophotometer (polymer absorbance=280 nm; Drug A absorbance=450 nm). The encapsulation efficiency is calculated from the change in absorbance of the drug after this initial dialysis. The polymer-drug solution is dialyzed further with fresh buffer (50× volume) with multiple readings over the course of 72 hours with 4 buffer changes. The rate at which the drug is released from the polymeric micelle is calculated by the change in absorbance of the drug over time from the polymer-drug solution and dialysis buffer.
(§3) Encapsulation of Drug B is carried out by the same dialysis procedure as described in Example III for Drug A. Drug B is dissolved in DMSO to a stock solution of 2.5 mg/ml. […]

[2] = Encapsulation efficiency of drug in PMC of Example I by dialysis and UV/Vis absorbance; assay type: physicochemical; conditions: PMC from Example I; dialysis 10,000 MWCO; tris buffer (pH 7.4) given for Drug A only
Method: as §1, §2, §3

drug released [1]: 50% | Encapsulation efficiency [2]: greater than 80%
Compound: CCCNC(=O)c1c(C)[nH]c(/C=C2\C(=O)Nc3ccc(F)cc32)c1C [Drug A]
